Consider two molecules from PMC6394990, “Detailed characterization of the solution kinetics and thermodynamics of biotin, biocytin and HABA binding to avidin and streptavidin” (PLoS ONE, 2019).

Series [1] has as its target T1, avidin (AV) (Gallus gallus, UniProt P02701).
T1 construct: purchased Calbiochem (La Jolla, CA)
In words: Dissociation (displacement/replacement) of dye-labeled biotin complexes by unlabeled B7. In kind it is binding. The settings on record: AB1; probe 20 nM, AV 260 nM; unlabeled B7 2,000 nM; 20°C. As to the method:
Biotin dissociation was determined using labelled biotin (BcO and BFl) displaced by unlabeled biotin using minimally occupied and fully occupied binding sites. In the minimally occupied measurements, SAV is prepared with less than one site on average occupied by labelled biotin (AB1), using 800 nM SAV and 40 nM of BcO or BFl. For saturated SAV-labelled biotin (AB4) complexes, equimolar binding sites and labelled ligand were prepared, 40 nM SAV and 40 nM of BcO or BFl. The AB1 complexes were challenged in displacement experiments with several concentrations of unlabeled B7 (1500 nM, 1750 nM, 2000 nM and 2500 nM) at 20 ± 0.1°C. […]
The rss measurements were collected using the Giblin-Parkhurst modification of the Wampler-Desa method as described previously. The fluorescence signal was detected in a model A-1010 Alphascan fluorimeter (Photon Technologies, Inc., Birmingham, NJ) equipped with an R928 PMT (Hamamatsu, Bridgewater, NJ). […] The fluorimeter G factor was determined using a film polarizer and analyzer with an excitation at 488 nm provided by a xenon arc lamp (model A1010, Photon Technologies Inc, Princeton, NJ). The dissociation reactions of dye-labeled B7 and protein complexes were monitored by fluorescence changes and were also collected in the fluorimeter described above. […]

A short description of series [2]: Fluorescence lifetimes, unbound probe. In kind it is physicochemical. To be noted: unbound dye; t for BFl and BcO, average lifetime for B-DNAds*Fl; in ns. On the procedure:
(§1) The lifetimes (τ), steady state anisotropies (rss), time-resolved anisotropies (rt) and quantum yields (QY) of the complexes (at 20 ± 0.1°C and pH 8) were collected with a dye-labeled B7 probe concentration of 20–40 nM and 1040–2080 nM of either protein (AV or SAV) to ensure that only one binding site in the tetramer was filled with a ligand (AB1 filling model).
The lifetimes were collected in a FluoTime100 fluorescence spectrometer (PicoQuant, GmbH, Berlin, Germany) with the excitation light source provided by a picosecond pulsed diode laser (PicoQuant, GmbH, Berlin, Germany) at 470 nm and 20 MHz. The emission was collected at 520 nm through a non-fluorescing 520 nm interference filter (Oriel Corp., Stratford, CT) followed by a liquid filter of 1cm path length containing 24 mM acetate buffered dichromate at pH 4, between the sample and detector to eliminate traces of excitation light. The fluorescence decays were fit by a nonlinear least-squares minimization based on the Marquardt algorithm embedded in the Fluofit software (PicoQuant GmbH). […] The PicoQuant G factor was calculated according to: G = ∫HV(t)dt/∫HH(t)dt, where HV(t) and HH(t) were the decays collected with the emission polarizer selecting vertical and horizontal E-vector passing orientations, respectively, and the excitation polarizer set at horizontally position.

Series [3] deals with T2, streptavidin (SAV) (Streptomyces avidinii, UniProt P22629).
T2 construct: purchased Sigma Aldrich (St. Louis, MO)
In words: Fluorescence lifetimes, SAV complex. In kind it is physicochemical. To be noted: for t (1), fluorescence lifetime: complex with SAV, t for BFl and BcO, average lifetime for B-DNAds*Fl. On the procedure:
as §1
The lifetimes were collected in a FluoTime100 fluorescence spectrometer (PicoQuant, GmbH, Berlin, Germany) with the excitation light source provided by a picosecond pulsed diode laser (PicoQuant, GmbH, Berlin, Germany) at 470 nm and 20 MHz. The emission was collected at 520 nm through a non-fluorescing 520 nm interference filter (Oriel Corp., Stratford, CT) followed by a liquid filter of 1cm path length containing 24 mM acetate buffered dichromate at pH 4, between the sample and detector to eliminate traces of excitation light. The fluorescence decays were fit by a nonlinear least-squares minimization based on the Marquardt algorithm embedded in the Fluofit software (PicoQuant GmbH). Twenty-eight decays were collected per sample, the decays were grouped in four sets, consisting of seven sample decays and one Instrument Response Function, IRF, for deconvolution proposes. The decay sets were globally fitted to mono- or bi-exponential decay models that were discriminated using the statistical parameter χ^2. The rt data were acquired with the fluorimeter described above equipped with a polarizer and an analyzer to acquire the parallel VV(t) and perpendicular VH(t) decays. The PicoQuant G factor was calculated according to: G = ∫HV(t)dt/∫HH(t)dt, where HV(t) and HH(t) were the decays collected with the emission polarizer selecting vertical and horizontal E-vector passing orientations, respectively, and the excitation polarizer set at horizontally position.

Series [4] in a line: Intrinsic lifetime, dynamic quantum yield and fraction of non-statically quenched molecules, unbound probe. In kind it is physicochemical. To be noted: for t° (2), intrinsic lifetime of the fluorescence dye: in ns; for 1-S (4) = QY/F, fraction of non-statically quenched molecules / F (3) = Sat/t° / S: unbound dye.
Series [5] addresses T1, avidin (AV). Kind of series: Intrinsic lifetime, dynamic quantum yield and fraction of non-statically quenched molecules, AV complex. In kind it is physicochemical. The settings on record: for Dynamic Quantum Yield Φ / Fraction of Non-Statically Quenched Dye 1-S / Natural Lifetime τ°: AV complex (AB1); for 1-S (4) = QY/F, fraction of non-statically quenched molecules / F (3) = Sat/t° / S / t° (2), intrinsic lifetime of the fluorescence dye: complex with AV; for t° (2), intrinsic lifetime of the fluorescence dye: in ns.

Several values for one entry are separate records, joined by “and”; a condition that tells them apart may be missing. Identical values can stand only once. Entries after “also recorded” stand apart in the source; their conditions may differ.

T2 sequence (P22629 25-183): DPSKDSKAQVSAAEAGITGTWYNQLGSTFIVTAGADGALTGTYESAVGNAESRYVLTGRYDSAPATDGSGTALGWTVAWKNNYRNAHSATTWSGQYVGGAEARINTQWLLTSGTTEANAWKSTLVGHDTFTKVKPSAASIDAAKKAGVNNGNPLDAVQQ
T1 sequence (P02701 25-152): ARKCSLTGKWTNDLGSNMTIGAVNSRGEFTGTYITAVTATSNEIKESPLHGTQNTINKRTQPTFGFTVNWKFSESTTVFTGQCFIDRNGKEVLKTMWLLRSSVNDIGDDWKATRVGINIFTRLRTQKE

Regarding `O=C(CCCC[C@@H]1SC[C@@H]2NC(=O)N[C@@H]21)NCCNC(=O)c1ccc(-c2c3ccc(=O)cc-3oc3cc(O)ccc23)c(C(=O)O)c1` [BFl, Biotin-4-fluorescein], the “koff displacement / koff replacement of AV complexes” value in series [1] is listed as “could not detect neither displacement nor replacement; also recorded: could not be detected”. In addition, the “t (1), fluorescence lifetime” value in series [2] came to 4.03 ± 0.01. Moreover, in series [3] (SAV complex), the “Σαiτi (integrated lifetime)” value was 3.70 ± 0.05 ns, the α1 is listed as 0.61 ± 0.03, the α2 is 0.39 ± 0.03 and the τ1 stood at 4.10 ± 0.02 ns. In series [3] (SAV complex), this molecule had a τ2 of 3.1 ± 0.02 ns. The “Lifetime τ” value in series [3] (SAV complex, di-ionic fluorescein species) is 4.1 ns and 4.1 ± 0.1 ns. Also, the “Lifetime τ” value in series [3] (SAV complex, mono-ionic fluorescein species) is 3.0 ns and 3.0 ± 0.1 ns. For the same molecule, the “t (1), fluorescence lifetime” value in series [3] came to 3.69 ± 0.01. In series [4], the “t° (2), intrinsic lifetime of the fluorescence dye” value (shortened to “t° (2), intrinsic lifetime”) is on record as 5.2 ± 0.2; the “1-S (4) = QY/F, fraction of non-statically quenched molecules” value was 0.65 (2×) and 0.65 ± 0.06; the “F (3) = Sat/t°” value was found to be 0.81 ± 0.04; the S is 0.35. For the same molecule, in series [5], the “Dynamic Quantum Yield Φ” value was 0.90 ± 0.02; the “Fraction of Non-Statically Quenched Dye 1-S” value is 0.49 ± 0.03; the “Natural Lifetime τ°” value came out at 4.7 ± 0.1; the “1-S (4) = QY/F, fraction of non-statically quenched molecules” value was 0.49 and 0.49 ± 0.03. Also, in series [5], the “F (3) = Sat/t°” value was 0.90 ± 0.02; the S is 0.51; the “t° (2), intrinsic lifetime” value came out at 4.7 ± 0.1.
`NC(CCCCNC(=O)CCCC[C@@H]1SC[C@@H]2NC(=O)N[C@@H]21)C(=O)NCCCCCNC(=O)c1ccc(-c2c3cc(F)c(=O)cc-3oc3cc(O)c(F)cc23)c(C(=O)O)c1` (stereo partly drawn) [BcO, Oregon green 488 Biocytin]: the “koff displacement / koff replacement of AV complexes” value in series [1] is listed as “could not detect neither displacement nor replacement; also recorded: could not be detected”. Moreover, in series [2], the “t (1), fluorescence lifetime” value is listed as 3.75 ± 0.04. Further, the “Lifetime τ” value in series [3] (SAV complex (AB1), 20°C, pH 8) was 3.98 ± 0.01 ns. For the same molecule, in series [3], the “t (1), fluorescence lifetime” value turned out to be 3.98 ± 0.01. In addition, in series [4], the “t° (2), intrinsic lifetime” value is on record as 4.4 ± 0.1; the “1-S (4) = QY/F, fraction of non-statically quenched molecules” value is 1 and 1.00 ± 0.02; the “F (3) = Sat/t°” value is 0.85 ± 0.02; the S turned out to be 0. In series [5], the “Dynamic Quantum Yield Φ” value is 0.88 ± 0.02; the “Fraction of Non-Statically Quenched Dye 1-S” value is 0.70 ± 0.03; the “Natural Lifetime τ°” value amounted to 4.9 ± 0.1; the “1-S (4) = QY/F, fraction of non-statically quenched molecules” value was 0.7 and 0.70 ± 0.03. In series [5], the “F (3) = Sat/t°” value is reported as 0.88 ± 0.02; the S is listed as 0.3; the “t° (2), intrinsic lifetime” value turned out to be 4.9 ± 0.1.
